Data: article PMC11474975, “Enzyme Dynamics Determine the Potency and Selectivity of Inhibitors Targeting Disease-Transmitting Mosquitoes” (ACS Infectious Diseases, 2024)
Where two headings read alike, the source gives them in different places.

Experiments:
[1] = system: AChE1 from Anopheles gambiae (AgAChE1); experiment: AgAChE1 inhibition, IC50 (Ellman assay); type: biochemical; conditions: class from experimental IC50
[2] = system: AChE1 from Anopheles gambiae (AgAChE1); conditions: taken from previous publications; cited from earlier work
hAChE [3] = experiment: hAChE inhibition, IC50; type: biochemical, Homo sapiens
hAChE [4] = conditions: taken from previous publications; cited from earlier work
mAChE [5] = target: T1, mAChE (Mus musculus, UniProt P21836); experiment: mAChE inhibition, IC50 (Ellman assay); conditions: for S.R. (selectivity ratio) mAChE vs AgAChE1: IC50 mAChE / IC50 AgAChE1; for mAChE inhibitor class (Strong/Weak): class from experimental IC50
T1 sequence (P21836 32-614): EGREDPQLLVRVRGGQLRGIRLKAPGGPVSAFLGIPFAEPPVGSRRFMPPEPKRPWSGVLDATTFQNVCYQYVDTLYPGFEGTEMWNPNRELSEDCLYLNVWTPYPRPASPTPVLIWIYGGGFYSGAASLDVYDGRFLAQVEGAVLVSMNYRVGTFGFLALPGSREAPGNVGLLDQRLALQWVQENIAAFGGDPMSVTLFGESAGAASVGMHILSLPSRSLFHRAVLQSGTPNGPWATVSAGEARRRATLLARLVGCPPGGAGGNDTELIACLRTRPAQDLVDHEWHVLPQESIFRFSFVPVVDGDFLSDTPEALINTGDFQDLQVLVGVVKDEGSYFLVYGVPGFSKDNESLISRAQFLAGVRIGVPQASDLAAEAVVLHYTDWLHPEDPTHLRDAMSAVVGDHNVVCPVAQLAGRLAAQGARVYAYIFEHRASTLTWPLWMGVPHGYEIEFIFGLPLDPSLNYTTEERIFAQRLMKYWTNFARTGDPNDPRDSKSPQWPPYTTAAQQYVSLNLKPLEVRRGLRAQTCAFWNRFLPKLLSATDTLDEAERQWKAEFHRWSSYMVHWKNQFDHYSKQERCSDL
Experimental: Dilution series of eight concentrations were prepared (0.001–1000 and 0.1–1000 μM, respectively). Enzymatic activity was measured using the Ellman assay (adapted to a 96-well format) with secreted nonpurified protein in growth medium. A QIAgility robotic benchtop instrument (Qiagen) was used for automatic liquid handling when setting up assay plates. The assay was then performed at 30 °C in a final volume of 200 mL 0.1 M phosphate buffer (pH 7.4) containing 0.2 mM 5,5′-thiobis(2-nitrobenzoic acid) and 1 mM acetylcholine iodide. Changes in the wells’ absorbance at 412 nm were recorded over 60 s using a FlexStation 3 Multi-Mode Microplate Reader (Molecular Devices) to monitor the enzymatic reaction. Eight positive controls of uninhibited enzyme were assumed to represent 100% activity and used to determine the average slope. […] Nonlinear regression (curve fitting) in GraphPad Prism[54] was used to calculate IC50 values. The log[inhibitor] vs response variable slope equation was fitted using three parameters. Three independent replicates were used for the IC50 determination.

mAChE [6] = target: T1, mAChE; design: made in house; method as in PMID 30339371, PMID 27598521, PMID 22140425; conditions: taken from previous publications; cited from earlier work

O=C(COc1ccc(Cl)cc1Cl)Nc1ccc(CN2CCCCC2)cc1 [AL137]
AgAChE1 inhibitor class (Strong/Weak) [1]: Strong (strong and weak inhibitors of AgAChE1 from both classes (IC50 < 1 μM and IC50 > 5 μM, respectively)
IC50 [2]: 0.26 µM

COc1ccc(NC(=S)NCCN2CCC(C)CC2)cc1Cl [AL201]
AgAChE1 inhibitor class (Strong/Weak) [1]: Strong (strong and weak inhibitors of AgAChE1 from both classes (IC50 < 1 μM and IC50 > 5 μM, respectively)
S.R. (selectivity ratio) hAChE vs AgAChE1 (hAChE [3]): 13
IC50 [2]: 0.96 µM
IC50 (hAChE [4]): 12 µM
IC50 (mAChE [5]): 26 µM
S.R. (selectivity ratio) mAChE vs AgAChE1 (mAChE [5]): 27
mAChE inhibitor class (Strong/Weak) (mAChE [5]): Weak (strong and weak inhibitors of AgAChE1 from both classes (IC50 < 1 μM and IC50 > 5 μM, respectively)

COc1ccccc1NC(=S)NCCN(C)C [AL237]
AgAChE1 inhibitor class (Strong/Weak) [1]: Weak (strong and weak inhibitors of AgAChE1 from both classes (IC50 < 1 μM and IC50 > 5 μM, respectively)
S.R. (selectivity ratio) hAChE vs AgAChE1 (hAChE [3]): 17
IC50 [2]: 7.1 µM
IC50 (hAChE [4]): 120 µM
IC50 (mAChE [5]): 217 µM
S.R. (selectivity ratio) mAChE vs AgAChE1 (mAChE [5]): 31
mAChE inhibitor class (Strong/Weak) (mAChE [5]): Weak (strong and weak inhibitors of AgAChE1 from both classes (IC50 < 1 μM and IC50 > 5 μM, respectively)

O=C(COc1ccc(-c2ccccc2)cc1)NCCCN1CCCCC1 [AL264]
AgAChE1 inhibitor class (Strong/Weak) [1]: Weak (strong and weak inhibitors of AgAChE1 from both classes (IC50 < 1 μM and IC50 > 5 μM, respectively)
S.R. (selectivity ratio) hAChE vs AgAChE1 (hAChE [3]): 6
IC50 [2]: 10 µM
IC50 (hAChE [4]): 57 µM
IC50 (mAChE [6]): 61 µM
S.R. (selectivity ratio) mAChE vs AgAChE1 (mAChE [5]): 6
mAChE inhibitor class (Strong/Weak) (mAChE [5]): Weak (strong and weak inhibitors of AgAChE1 from both classes (IC50 < 1 μM and IC50 > 5 μM, respectively)

CCN1CCN(C2CCN(C(=O)COc3ccc(-c4ccc(OC)cc4)cc3)CC2)CC1 [AL284]
AgAChE1 inhibitor class (Strong/Weak) [1]: Strong (strong and weak inhibitors of AgAChE1 from both classes (IC50 < 1 μM and IC50 > 5 μM, respectively)
S.R. (selectivity ratio) hAChE vs AgAChE1 (hAChE [3]): 45
IC50 [2]: 0.4 µM
IC50 (hAChE [4]): 18 µM
IC50 (mAChE [6]): 29 µM
S.R. (selectivity ratio) mAChE vs AgAChE1 (mAChE [5]): 73
mAChE inhibitor class (Strong/Weak) (mAChE [5]): Weak (strong and weak inhibitors of AgAChE1 from both classes (IC50 < 1 μM and IC50 > 5 μM, respectively)
